# Experimental data: patent US6737407B1, “Treatment of obesity” (Metabolic Pharmaceuticals, Ltd., priority 1997, dated 2004)
# Where no end group is shown, it is not given here.
# Key:
# [1] = test system: isolated adipocytes of normal rats; assay: Diacylglycerol (DAG) release from isolated adipocytes; assay type: cell-based, rat
# Experimental: FIG. 8 illustrates the in vitro effect of hGH 177-191 on the release of diacylglycerol from isolated adipocytes of normal rats over an incubation period of 40 min. Diacylglycerol was quantitated using radioenzymic assay and the results were expressed as % increase over the basal levels.
# Diacylglycerol released from isolated adipose tissue or adipocytes was quantitated using a radioenzymic assay, employing E coli DAG kinase and defined mixed micelle conditions to solubilize DAG and allow its quantitative conversion to [^33p] phosphatidic acid in the presence of [^33p]-γ-ATP.
# C57BL/6J (ob/ob) mice = assay: Chronic 18-day treatment of obese mice with hGH 177-191: body weight gain, food consumption, adipose tissue weight; assay type: in vivo, mouse; conditions: for Initial body wt.: treated group, before 18-day daily i.p. 200 μg/kg
# Experimental: FIGS. 1A & 1B show the effect of hGH 177-191 peptide on cumulative body weight gains in male (1A) and female (1B) C57BL/6J (ob/ob) mice during the 18-day treatment period. Animals were given a daily intraperitoneal injection of 0.1 ml of either saline or hGH 177-191 (200 μg/kg body weight). Each points represents the mean±SEM of 6 animals.
# FIGS. 2A & 2B show the average daily food consumption (g/mouse/day) of C57BL/6J (ob/ob) mice during an 18day treatment period with hGH 177-191. The treatment for the four groups of animals was as described in FIGS. 1A & 1B. Each point represents the mean±SEM of 6 animals.
# The animals of the same age and same sex were randomly divided into two groups, housed 6 per cage and maintained on a normal 12-hr light/dark cycle at a constant room temperature of 25° C. in the animal house of the Department of Biochemistry and—Molecular Biology, Monash University, Clayton, Australia. Animals were fed ad libitum on pre-determined quantity of animal pellets (Clark King, Melboume, Australia) and allowed free access to water at all times. The animals were given a daily intraperitoneal (i.p) injection of 0.1 ml of either the synthetic peptide (200-500 μg/kg body weight) or equivalent volume of physiological saline (0.9% sodium chloride) for appropriate number of days. The i.p. injection was administered with a 30G×½″ (0.31×13 mm) needle on a 1-ml disposable tuberculin syringes, and the site of injection was the lower left quadrant of the abdomen of the animals. To study the effects of controlled-delivery of hGH 177-191 and analogues, slow-release peptide-pellets in a diameter of 3 mm were implanted intradermally in the abdominal region of Zucker rats under anaesthesia. The body weight and food intake were monitored for the periods of time as indicated.
# Cumulative weight gain and food consumption were determined at 3-day intervals by the measurements of body weight and uneaten food remaining in the cages. The animals were placed in a covered chamber to minimise movement during the weighing procedure. The food consumption data were obtained by subtracting the amount of uneaten food remaining in the cages from the original provision.
# The procedure for the isolation and measurement of intact epididymal fat pads was established in previous studies of epididymal growth of GH-deficient (lit/lit) mice. In the present study, white adipose tissues, either whole epididymal or parametrical fat pads, were excised with the identical techniques as previously described^22 from the mice immediately after sacrifice. The tissues were washed in cold physiological saline, blotted and weighed. For ex vivo lipogenic assays, the portions of adipose tissues without blood vessels were used.
# [2] = test system: adipose tissues from male Zucker fatty (fa/fa) rats; assay: In vitro glycerol release during lipolysis in isolated adipose tissue; assay type: cell-based, rat; conditions: adipose tissues isolated from obese animals
# Experimental: Adipose tissues were removed from animals and sliced into segments of approximately 200 mg each. Then the tissues were pre-incubated in 25 ml vials containing 2 ml of Krebs-Ringerbicarbonate (KRB) buffer, 4% defatted BSA and 5.5 mM glucose under an atmosphere of carbogen (95%O2/ 5%CO2) at 37° C. for 1 hour. Tissues were then transferred to another vials with fresh medium and the incubation was initiated by adding hGH 177-191 peptide or analogues into the vials. The mixtures were then incubated at 37° C. for 90 minutes. After incubation, the tissues wee removed and aliquots (200 μl) of samples withdrawn from the medium were assayed for the contents of glycerol or free fatty acid (FFA) either by the enzyme assay (glycerol kinase) or calorimetric (copper-dye) spectrometry. The NADH or color produced was then monitored by the absorption at 340 nm and 610 nm, respectively.
# [3] = female ob/ob mice, 18-day daily i.p. 200 μg/kg
# [4] = male ob/ob mice, 18-day daily i.p. 200 μg/kg
sequence,measurement,setting,value
LRIVQCRSVEGSCGF (cysteine pairing not given here) [Ref No. 9401],production/release of diacylglycerol (in words),[1],activation of the production
same,average daily body weight gain lower than control,C57BL/6J (ob/ob) mice; both male and female ob/ob mice,approximately 27%
same,Adipose tissue (intact parametrical fat pads),C57BL/6J (ob/ob) mice; [3],3.26 g
same,Body wt. gain,C57BL/6J (ob/ob) mice; [3],4.0 g
same,Final body wt.,C57BL/6J (ob/ob) mice; [3],52.2 g
same,daily body weight gain,C57BL/6J (ob/ob) mice; [3],0.22 ± 0.04 g/day
same,reduction of adipose tissue weight versus control,"C57BL/6J (ob/ob) mice; female ob/ob mice, parametrical fat pads",≤ 12%
same,Initial body wt.,C57BL/6J (ob/ob) mice; female ob/ob mice,48.2 g
same,cumulative body weight gain versus control (in words),"C57BL/6J (ob/ob) mice; male and female ob/ob mice, 18-day daily i.p. 200 μg/kg",clear reduction
same,average daily food consumption versus control (in words),"C57BL/6J (ob/ob) mice; male and female ob/ob mice, 18-day treatment",no significant difference
same,Adipose tissue (intact epididymal fat pads),C57BL/6J (ob/ob) mice; [4],2.52 ± 0.25 g
same,Body wt. gain,C57BL/6J (ob/ob) mice; [4],2.9 ± 0.6 g
same,Final body wt.,C57BL/6J (ob/ob) mice; [4],51.5 ± 2.3 g
same,daily body weight gain,C57BL/6J (ob/ob) mice; [4],0.16 ± 0.04 g/day
same,reduction of adipose tissue weight versus control,"C57BL/6J (ob/ob) mice; male ob/ob mice, epididymal fat pads",up to 20%
same,Initial body wt.,C57BL/6J (ob/ob) mice; male ob/ob mice,48.6 ± 2.0 g
same,release of glycerol (in words),[2],enhanced
